Assay results as given in PMC7000521, “Hazard Characterization of Synthetic Cathinones Using Viability, Monoamine Reuptake, and Neuronal Activity Assays” (Frontiers in Neuroscience, 2020).

Experiments:
hDAT = biological target: T1, hDAT (Homo sapiens, UniProt Q01959); assay: Monoamine uptake assay (fluorescent substrate), hDAT; format: cell-based
T1 construct: expressed in transfected cells
Protocol: Human embryonic kidney (HEK) 293 cells stably expressing human DAT, NET, or SERT (kindly provided by Dr. Hoener from F. Hoffmann-La Roche Ltd., Basel, Switzerland) were cultured as described in [Zwartsen et al. (2017)].
Uptake activity of hNET, hDAT, and hSERT was measured using the Neurotransmitter Transporter Uptake Assay Kit from MDS Analytical Technologies (Sunnyvale, CA, United States) as described in detail previously ([Zwartsen et al., 2017]). The kit contained a mixture consisting of a fluorescent substrate, which resembles the biogenic amine neurotransmitters, and a masking dye that extinguishes extracellular fluorescence. Uptake of the fluorescent substrate, a measure of neurotransmitter transporter function, increases intracellular fluorescence, while extracellular fluorescence is blocked by the masking dye ([Jorgensen et al., 2008]). The mixture was dissolved in Hank’s Balanced Salt Solution (1×) (HBSS) with 20 mM HEPES, and kept up to 1 week at −20°C.
On day 0, HEK 293 cells were seeded (60,000 cells/well) in clear-bottom black-walled 96-well plates coated with poly-L-lysine (PLL, 50 mg/L). On day 1, cells were pre-incubated with the fluorescent substrate mixture (95 μL/well, comprising of the fluorescent substrate and the extracellular masking dye, dissolved in HBSS) for 12 min (t = −12 to t = 0). During incubation, intracellular fluorescence was measured every 3 min. […] Stock solutions and dilutions were freshly prepared in HBSS (1×) at the day of usage. Effects of 3-MMC, 4-MMC, 4-MEC, methylone, pentedrone, MDPV, 3-MMCinternet, and 4-MECinternet were measured at final concentrations of 0.03–300/1000 μM. Fluorescence was measured with a microplate reader (Tecan Infinite M200 microplate; Tecan Trading Männedorf, Switzerland) at 37°C at 430/515 nm excitation/emission wavelength. For more experimental detail see [Zwartsen et al. (2017)].
Data from the monoamine uptake assay were analyzed as described by [Zwartsen et al. (2017)], with minor modifications. Data for α-PVP were reanalyzed from [Zwartsen et al. (2017)]. In short, the fluorescence of each well was background corrected and uptake was determined per well by calculating the change in fluorescence (ΔFU) at 12 min after drug exposure (t = 12) compared to the fluorescence at the start of exposure (t = 0), as a percentage of the fluorescence at the start of exposure (%ΔFU = ((FUt = 12−FUt = 0)/FUt = 0)∗100%; see [Zwartsen et al., 2017]). Plate-matched control values for each compound (e.g., methylone) above or below two times the standard deviation of the average normalized control value were considered outliers and were removed from analysis (4.8%). Thereafter, uptake in drug-exposed wells was expressed as a percentage of control wells on the same plate and all uptake values were scaled between 0 and 100%. Outliers (>mean ± 2×SD) in exposed groups were removed (2.7%) and uptake (% compared to control) was expressed as mean ± SEM of nwells from Nplates.
Concentration–response curves were made for transporter, MEA, and cell viability assays. To calculate IC50 values, a four-parameter logistic curve with a variable slope was used (Y = Bottom + (Top−Bottom)/(1 + 10∧((LogIC50 − X) ^∗ HillSlo pe))) (GraphPad Prism, version 7.04). When applicable, significance between concentrations and controls (for MEA) and different IC50 values [between different transporters (DAT/NET/SERT), MEA parameters (MSR/MBR/MNBR), exposure settings (acute/prolonged/recovery), and drug grade (pharmaceutical/internet)] were determined using unpaired t-tests (two values) or one-way ANOVA’s followed by a post hoc Dunnet’s test (>2 values). All statistical tests were performed using GraphPad Prism. For recovery of neuronal activity, IC50 values and 95% confidence intervals could not always be determined and are reported as higher than the highest concentration tested (e.g., >1000 μM). […]

[1] = Brain partitioning factor (BPF); details: brain concentration divided by blood/serum/plasma concentration from human post mortem reports or animal studies (rat/mice)
Text: (§1) To correlate reported effect concentrations to expected concentrations in the human brain during recreational use a brain partitioning factor (BPF; […]) was applied, as actual human brain concentrations following recreational drug use are unknown. Expected concentrations in the human brain were estimated by multiplying recreational human blood/serum/plasma concentrations with the BPF. Human recreational blood, serum, or plasma levels were obtained from literature (driving under the influence or accidental non-fatal intoxications). The BPF was determined for each drug by dividing the brain concentration by the blood/serum/plasma concentration found in human post mortem reports, or animal studies (rat/mice) when human data were insufficient.

[2] = Estimated human brain concentrations and comparison with IC50 values; details: recreational human blood/serum/plasma concentration multiplied with BPF
Text: as §1
To identify the relevance of effects and potentially harmful drugs, effect concentrations (IC50 values) were related to the estimated human brain concentration during recreational use [(brain), Table 2]. By comparing these concentrations, the most relevant neurotoxic mechanisms of cathinones can be identified. […] Only 4-MEC and MDPV inhibited neuronal activity during acute exposure at concentrations within (MDPV) or close to (4-MEC) the estimated brain concentration.

[3] = recreational use (driving under the influence or accidental non-fatal intoxications); ref literature; cited from earlier work

T1 sequence (Q01959 whole entry): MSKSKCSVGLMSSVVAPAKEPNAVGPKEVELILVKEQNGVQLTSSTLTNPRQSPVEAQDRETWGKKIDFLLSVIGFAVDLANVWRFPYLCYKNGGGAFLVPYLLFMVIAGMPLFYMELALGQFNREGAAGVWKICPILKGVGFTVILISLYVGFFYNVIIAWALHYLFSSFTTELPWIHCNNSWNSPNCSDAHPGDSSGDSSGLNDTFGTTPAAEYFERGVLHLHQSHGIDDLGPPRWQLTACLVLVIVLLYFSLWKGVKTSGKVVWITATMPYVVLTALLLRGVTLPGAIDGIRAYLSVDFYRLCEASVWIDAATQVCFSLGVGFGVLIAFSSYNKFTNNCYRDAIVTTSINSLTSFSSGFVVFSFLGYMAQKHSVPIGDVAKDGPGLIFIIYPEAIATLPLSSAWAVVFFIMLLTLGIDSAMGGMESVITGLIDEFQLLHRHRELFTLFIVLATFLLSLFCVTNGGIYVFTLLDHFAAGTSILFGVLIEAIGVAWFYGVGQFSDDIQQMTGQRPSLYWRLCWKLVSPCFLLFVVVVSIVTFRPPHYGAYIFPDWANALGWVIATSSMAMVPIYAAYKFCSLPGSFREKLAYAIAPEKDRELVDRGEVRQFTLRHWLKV

Row | Compound | IC50 (hDAT) | Brain partitioning factor (BPF) [1] | Estimated human (brain) concentration [2] | Human (serum/blood/plasma) concentration [3]
1 | CCNC(C)C(=O)c1ccc(C)cc1 (stereo not shown) [4-MEC, 2-(ethylamino)-1-(4-methylphenyl) propan-1-one] | 1.6 µM | 1.5–6.2^4 | 0.2 to 29 µM | 0.1–4.7^a^,d μM
2 | CNC(C)C(=O)c1ccc(C)cc1 (stereo not shown) [4-MMC, 2-(methylamino)-1-(4-methylphenyl) propan-1-one] | 1.4 µM | 0.7–6.2^1,^–2,^3 | 0.04 to 37 µM | 0.05–6.0^a^,d,E,f μM
3 | CCCC(C(=O)c1ccc2c(c1)OCO2)N1CCCC1 (stereo not shown) [MDPV, 1-(1,3-benzodioxol-5-yl)-2-pyrro lidin-1-ylpentan-1-one] | 0.07 µM | 0.8–4.4^4,11,12 | 0.02 to 30 µM | 0.02–6.9^d,L,M,n μM
4 | CCCC(NC)C(=O)c1ccccc1 (stereo not shown) [Pentedrone, 2-(methylamino)-1-phenyl pentan-1-one] | 0.4 µM | 1.6^8 | 0.06 to 3.0 µM | 0.04–1.9^a^,d,I μM
5 | CNC(C)C(=O)c1cccc(C)c1 (stereo not shown) [3-MMC, 2-(methylamino)-1-(3-methylphenyl) propan-1-one] | 2.5 µM | – | 0.005 to 9.0 µM | 0.005–9.0^A,b,^c μM
